In patent US20240174690A1, “ANNULATED 2-AMINO-3-CYANO THIOPHENES AND DERIVATIVES FOR THE TREATMENT OF CANCER” (BOEHRINGER INGELHEIM INTERNATIONAL GMBH, priority 2021, published 2024):
Like-named read-outs stand apart in the source and are kept apart here.

Experiments:
[1] = molecular target: KRAS (G12C)::SOS1 (Homo sapiens (Human), UniProt P01116, C118S/C51S/C80L/G12C); experiment: KRAS::SOS1 AlphaScreen binding assay, KRAS G12C
In short: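 AlphaScreen measurement of compound disruption of biotinylated, GDP-loaded KRAS 1-169 (10 nM; G12C 7.5 nM) binding to GST-SOS1 564-1049 (5 nM with G12D/G12C, 10 nM otherwise), with 10 μM GDP in PBS/0.1% BSA/0.05% Tween 20. Timing was 30 min compound preincubation, then 60 min with beads at room temperature; top concentration 100 μM, 4-parameter IC50.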

[2] = system: LOVO cells; experiment: LOVO CTG proliferation assay (120 h) (CRC, G13D); assay type: cell-based; settings: CTG 120 h
In short: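 IC50 comes from a four-parameter fit of CellTiter-Glo viability, expressed as RLU relative to DMSO wells. Compound exposure lasted 120 h in LOVO cells seeded the day before at 1000 cells/well in DMEM with 10% fetal calf serum.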

[3] = system: NCI-H358 cells; experiment: NCI-H358 CTG proliferation assay (120 h) (NSCLC, G12C); assay type: cell-based, human; settings: assay 2, CTG, read-out: H358 (assay 2) IC50
In short: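 IC50 values derive from four-parameter nonlinear regression of CellTiter-Glo viability (RLU relative to DMSO wells) after 120 h of exposure. Cells were plated in RPMI-1640 + 10% FCS at 2000 per well (assay 1) or 200 per well (assay 2). Untreated cells were measured at compound addition as T0.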

Chain of KRAS (G12C)::SOS1 (P01116 other isoform, or with tags, fused parts or gaps G12C/C51S/C80L/C118S): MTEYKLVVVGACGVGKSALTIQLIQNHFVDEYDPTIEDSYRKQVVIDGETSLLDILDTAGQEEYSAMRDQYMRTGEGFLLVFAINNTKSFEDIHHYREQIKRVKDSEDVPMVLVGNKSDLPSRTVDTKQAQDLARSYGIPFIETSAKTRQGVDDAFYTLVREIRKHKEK

Row | Structure (SMILES) | IC50 [1] [nM] | IC50 ([2]; Homo sapiens) [nM] | IC50 ([3]; Homo sapiens) [nM] | IC50 [2] [nM] | IC50 [3] [nM]
1 | C[C@H](Oc1cc(-n2ccc(C(=O)N[C@H]3CCOC3)n2)nc(-c2noc3c2CCC[C@@]32CCCc3sc(N)c(C#N)c32)n1)[C@@H]1CCCN1C [II-193] | 1 | – | – | 12 | 1
2 | C[C@H](Oc1cc(-n2ccc(C(=O)N(C)C3COC3)n2)nc(-c2noc3c2CCC[C@@]32CCCc3sc(N)c(C#N)c32)n1)[C@@H]1CCCN1C [II-194] | 1 | 13 | 3 | – | –
3 | COCCNC(=O)c1ccn(-c2cc(O[C@@H](C)[C@@H]3CCCN3C)nc(-c3noc4c3CCC[C@@]43CCCc4sc(N)c(C#N)c43)n2)n1 [II-195] | 1 | 12 | 4 | – | –
4 | CO[C@H]1CCN(C)[C@@H]1[C@H](C)Oc1cc(-n2ccc(C(=O)N[C@@H](C)c3ccccn3)n2)nc(-c2noc3c2CCC[C@@]32CCCc3sc(N)c(C#N)c32)n1 [II-196] | 1 | 15 | 2 | – | –
5 | CO[C@H]1CCN(C)[C@@H]1[C@H](C)Oc1cc(-n2ccc(C(=O)N[C@@H]3CCOC3)n2)nc(-c2noc3c2CCC[C@@]32CCCc3sc(N)c(C#N)c32)n1 [II-197] | 1 | 14 | 1 | – | –
6 | CO[C@H]1CCN(C)[C@@H]1[C@H](C)Oc1cc(-n2ccc(C(=O)N[C@H]3CCOC3)n2)nc(-c2noc3c2CCC[C@@]32CCCc3sc(N)c(C#N)c32)n1 [II-198] | 1 | 25 | 1 | – | –
7 | CO[C@H]1CCN(C)[C@@H]1[C@H](C)Oc1cc(-n2ccc(C(=O)N(C)C3COC3)n2)nc(-c2noc3c2CCC[C@@]32CCCc3sc(N)c(C#N)c32)n1 [II-199] | 1 | 34 | 5 | – | –
8 | COCCNC(=O)c1ccn(-c2cc(O[C@@H](C)[C@@H]3[C@@H](OC)CCN3C)nc(-c3noc4c3CCC[C@@]43CCCc4sc(N)c(C#N)c43)n2)n1 [II-200] | 1 | 15 | 3 | – | –
9 | CO[C@H]1CCN(C)[C@@H]1[C@H](C)Oc1cc(-n2ccc(C(N)=O)n2)nc(-c2noc3c2CCC[C@@]32CCCc3sc(N)c(C#N)c32)n1 [II-201] | 1 | 33 | 6 | – | –
10 | C[C@H](Oc1cc(-n2cc3ccn([C@@H](C)c4ccccn4)c(=O)c3n2)nc(-c2noc3c2CCC[C@@]32CCCc3sc(N)c(C#N)c32)n1)[C@@H]1CCCN1C [II-205] | 2 | 22 | 18 | – | –
11 | C[C@H](Oc1cc(-n2cc3ccn(C4CCOCC4)c(=O)c3n2)nc(-c2noc3c2CCC[C@@]32CCCc3sc(N)c(C#N)c32)n1)[C@@H]1CCCN1C [II-206] | 2 | 31 | 4 | – | –
12 | [2H]C([2H])([2H])N1C[C@H](F)C[C@H]1[C@H](C)Oc1cc(N2CCN(C([2H])([2H])[2H])C3(CC3)C2)nc(-c2noc3c2CCC[C@@]32CCCc3sc(N)c(C#N)c32)n1 [II-207] | 6 | 310 | 287 | – | –

Further lines, with some results ahead:

Row | IC50 [1] [nM] | IC50 ([2]; Homo sapiens) [nM] | IC50 ([3]; Homo sapiens) [nM] | Structure (SMILES) | IC50 [2] [nM] | IC50 [3] [nM]
13 | 1 | 103 | 5 | C[C@H](Oc1cc(-n2cc3ccn([C@H]4CCOC4)c(=O)c3n2)nc(-c2noc3c2CCC[C@@]32CCCc3sc(N)c(C#N)c32)n1)[C@@H]1CCCN1C [II-202] | – | –
14 | 2 | 70 | 5 | C[C@H](Oc1cc(-n2cc3ccn([C@@H]4CCOC4)c(=O)c3n2)nc(-c2noc3c2CCC[C@@]32CCCc3sc(N)c(C#N)c32)n1)[C@@H]1CCCN1C [II-203] | – | –
15 | 1 | 46 | 5 | C[C@H](Oc1cc(-n2cc3ccn(C[C@H]4CCOC4)c(=O)c3n2)nc(-c2noc3c2CCC[C@@]32CCCc3sc(N)c(C#N)c32)n1)[C@@H]1CCCN1C [II-204] | – | –
16 | 2 | 35 | 2 | C[C@H](Oc1cc(-n2ccc(-c3cn(C4CCOCC4)nn3)n2)nc(-c2noc3c2CCC[C@@]32CCCc3sc(N)c(C#N)c32)n1)[C@@H]1CCCN1C [II-210] | – | –
17 | 2 | 40 | 1 | C[C@H](Oc1cc(-n2ccc(-c3cn([C@@H]4CCOC4)nn3)n2)nc(-c2noc3c2CCC[C@@]32CCCc3sc(N)c(C#N)c32)n1)[C@@H]1CCCN1C [II-211] | – | –
18 | 2 | 35 | 1 | C[C@H](Oc1cc(-n2ccc(-c3cn([C@H]4CCOC4)nn3)n2)nc(-c2noc3c2CCC[C@@]32CCCc3sc(N)c(C#N)c32)n1)[C@@H]1CCCN1C [II-212] | – | –
19 | 2 | 117 | 1 | C[C@H](Oc1cc(-n2ccc(-c3cn(CC4(C)COC4)nn3)n2)nc(-c2noc3c2CCC[C@@]32CCCc3sc(N)c(C#N)c32)n1)[C@@H]1CCCN1C [II-213] | – | –
